# US20240209014A1, “NOVEL SPINOSYN PRODRUGS” (Acies Bio d.o.o., priority 2021, published 2024)
# Read-outs that look alike come from different tables or passages of the source.
# Assays:
# [1] = Stability of J1Aa and J7a at different pH values (LC-MS); type: physicochemical
# Procedure: Stability of compounds J1Aa and J7a was evaluated at different pH values. Differential stability/conversion to the active ingredient is expected to result in condition-specific activation and thereby to higher specificity towards target pests.
# Stock solutions of the compounds were prepared at concentration of 0.1 mol/L. 10 μL of the stock solutions were transferred to 0.75 ml of the buffer solutions with pH values of 4, 5, 9 and 11. […] After specified times samples were analyzed using LC-MS. The compounds J1Aa and J7a and the active compound spinosyn A were quantified. It is seen that the two compounds are converted to the active form preferably in alkaline conditions.
# [2] = tested on: honey bees (Apis melifera carnica, Pollman 1879); experiment: Single dose acute oral toxicity test on adult worker honey bees; type: in vivo
# Procedure: Toxicity of the compounds of this invention towards honey bees (Apis melifera carnica, Pollman 1879) was assessed in comparison with commercially available samples of spinosad (LGC (Dr. Ehrenstorfer); Product code: DRE-C16972830) and the naturally produced compound butenyl spinosyn alpha 1. Solutions of spinosyn compounds were prepared in 100 mM ammonium acetate, pH=5, and later diluted in 50% (500 g/L) sucrose solution in water to final concentrations. Two final concentrations were used for each compound, 7.76 μmol/L and 15.53 μmol/L.
# Single dose acute oral toxicity tests were conducted on adult worker bees according to previously described standard methods (Medrzycki at el., (2013)). Each compound and condition were tested in two parallels. Briefly, each parallel experiment consisted of 5 cages with 20 honey bees per cage. […] After uptake of the solutions honey bees were supplied with standard 50% sucrose solution and observed at 24 h and 48 h and the number of dead and live bees was estimated.
# Ammonium acetate solution with pH 5 was used as the negative control.
# [3] = tested on: larvae of Ostrinia nubilialis (development stage L1); experiment: Insecticide efficacy, corn leaf dip, Henderson-Tilton method; type: in vivo
# Procedure: Insecticide activities of the compounds of this invention were assessed in comparison with commercially available samples of spinosad (LGC (Dr. Ehrenstorfer); Product code: DRE-C16972830) and spinetoram (LGC (Dr. Ehrenstorfer); Product code: DRE-C16972770). Solutions of spinosyn compounds were prepared by adding 0.05% Tween 80, lowering pH to 5.95 and sonicating. Two concentrations of each compound were used, 0.1 μg/ml and 0.3 μg/mL, with each condition tested in four parallels.
# Freshly collected corn leaves were dipped into the prepared solutions. After dipping leaves were left to dry at room temperature for 1 hour. Each dry leaf was then infested with 4 larvae of Ostrinia nubilialis (development stage L1), and the experimental device was incubated at 21° C.-23° C. for 24 h in order to optimize insect development. At three timings post infestation (1 day, 3 days and 6 days), the insecticide efficacy is evaluated from the number of living larvae using the Henderson-Tilton method. Untreated control was integrated for normalization and validation of larvae health.
# [4] = Kinetic solubility assay; type: physicochemical; conditions: dose conc 200 μM, 25±2° C.
# Procedure: Solubility of the compounds of the invention was assessed using kinetic solubility assay and compared to solubility of butenyl spinosyn. Stock solutions of spinosyn compounds were prepared in DMSO at mM concentration). 10 uL of the stock solutions were added into 490 of in K.S. 5.4 buffer of pH 5.4 (80 mM phosphoric acid, acetic acid, boric acid buffer, adjusted the pH to pH 5.4 with 1 N HCl and 1N NaOH) or K.S. 7.4 buffer with pH of 7.4 (80 mM phosphoric acid, acetic acid, boric acid buffer, adjusted the pH to pH 7.4 with 1 N HCl and 1N NaOH). The solutions were incubated with shaking at room […] temperature (25±2° C.) for 24 hours. 200 uL of each solution were then transferred into a new MultiScreen filter plate (Membrane of polycarbonate) and filtered by millipore vacuum manifold, and the filtrate was collected. The concentrtions of tested compounds in the filtered samples were analyzed by HPLC analysis calibrated by a standard curve generated by injection of 3 standard solutions of the relevant compound with concentrations of 1, 20, 200 μM.
# [5] = single oral dose 0.078 nmol/bee, 24 h after application
# [6] = single oral dose 0.078 nmol/bee, 48 h after application
# [7] = single oral dose 0.155 nmol/bee, 24 h after application
# [8] = single oral dose 0.155 nmol/bee, 48 h after application
Molecule,"Compound (J1Aa/J7a) Area % remaining ([1]; buffer pH 4, 0.16 h)","SPN Area % (active spinosyn A released) ([1]; buffer pH 4, 0.16 h)","Compound (J1Aa/J7a) Area % remaining ([1]; buffer pH 4, 6 h)","SPN Area % (active spinosyn A released) ([1]; buffer pH 4, 6 h)","Compound (J1Aa/J7a) Area % remaining ([1]; buffer pH 4, 12 h)","SPN Area % (active spinosyn A released) ([1]; buffer pH 4, 12 h)","Compound (J1Aa/J7a) Area % remaining ([1]; buffer pH 4, 24 h)","SPN Area % (active spinosyn A released) ([1]; buffer pH 4, 24 h)","Compound (J1Aa/J7a) Area % remaining ([1]; buffer pH 5, 0.16 h)","SPN Area % (active spinosyn A released) ([1]; buffer pH 5, 0.16 h)","Compound (J1Aa/J7a) Area % remaining ([1]; buffer pH 5, 6 h)","SPN Area % (active spinosyn A released) ([1]; buffer pH 5, 6 h)","Compound (J1Aa/J7a) Area % remaining ([1]; buffer pH 5, 12 h)","SPN Area % (active spinosyn A released) ([1]; buffer pH 5, 12 h)","Compound (J1Aa/J7a) Area % remaining ([1]; buffer pH 5, 24 h)","SPN Area % (active spinosyn A released) ([1]; buffer pH 5, 24 h)","% of surviving honey bees [2, 5]","% of surviving honey bees [2, 6]","% of surviving honey bees [2, 7]","% of surviving honey bees [2, 8]",also measured
CC[C@H]1CCC[C@H](OC2CCC([N+](C)(C)COC(=O)C(C)(C)C)C(C)O2)[C@@H](C)C(=O)C2=C[C@@H]3[C@@H](C=C[C@@H]4C[C@@H](OC5OC(C)C(OC)C(OC)C5OC)C[C@@H]34)[C@@H]2CC(=O)O1 (some centres unmarked) [Compound J1Aa],94.2%,5.8%,92.9%,7.1%,93.8%,6.2%,93.5%,6.5%,94.1%,5.9%,91.0%,9.0%,92.0%,8.0%,90.4%,9.6%,99%,82%,91%,42%,"Compound (J1Aa/J7a) Area % remaining ([1]; buffer pH 9, 0.16 h): 33.1%; SPN Area % (active spinosyn A released) ([1]; buffer pH 9, 0.16 h): 66.9%; Compound (J1Aa/J7a) Area % remaining ([1]; buffer pH 9, 6 h): 0.0%; SPN Area % (active spinosyn A released) ([1]; buffer pH 9, 6 h): 100.0%; Compound (J1Aa/J7a) Area % remaining ([1]; buffer pH 11, 0.16 h): 0.0%; SPN Area % (active spinosyn A released) ([1]; buffer pH 11, 0.16 h): 100.0%"
CC[C@H]1CCC[C@H](OC2CCC([N+](C)(C)COC(=O)OC(C)C)C(C)O2)[C@@H](C)C(=O)C2=C[C@@H]3[C@@H](C=C[C@@H]4C[C@@H](OC5OC(C)C(OC)C(OC)C5OC)C[C@@H]34)[C@@H]2CC(=O)O1 (some centres unmarked) [Compound J7a],92.1%,7.9%,91.6%,8.4%,91.3%,8.7%,90.7%,9.3%,91.8%,8.2%,90.9%,9.1%,90.3%,9.7%,89.0%,11.0%,96%,88%,97%,68%,"Compound (J1Aa/J7a) Area % remaining ([1]; buffer pH 9, 0.16 h): 44.4%; SPN Area % (active spinosyn A released) ([1]; buffer pH 9, 0.16 h): 55.6%; Compound (J1Aa/J7a) Area % remaining ([1]; buffer pH 9, 6 h): 0.0%; SPN Area % (active spinosyn A released) ([1]; buffer pH 9, 6 h): 100.0%; Compound (J1Aa/J7a) Area % remaining ([1]; buffer pH 11, 0.16 h): 0.1%; SPN Area % (active spinosyn A released) ([1]; buffer pH 11, 0.16 h): 99.9%"
"spinetoram [Spinoteram, reference compound]",–,–,–,–,–,–,–,–,–,–,–,–,–,–,–,–,–,–,–,–,"% Efficacy ([3]; dose 0.1 μg a.i./ml, 1 day post infestation): 27%; % Efficacy ([3]; dose 0.1 μg a.i./ml, 3 days post infestation): 60%; % Efficacy ([3]; dose 0.1 μg a.i./ml, 6 days post infestation): 85%; % Efficacy ([3]; dose 0.3 μg a.i./ml, 1 day post infestation): 31%; % Efficacy ([3]; dose 0.3 μg a.i./ml, 3 days post infestation): 86%; % Efficacy ([3]; dose 0.3 μg a.i./ml, 6 days post infestation): 97%"
"CC/C=C/[C@H]1CCC[C@H](OC2CCC(N(C)C)C(C)O2)[C@@H](C)C(=O)C2=C[C@@H]3[C@@H](C=C[C@@H]4C[C@@H](OC5OC(C)C(OC)C(OC)C5OC)C[C@@H]34)[C@@H]2CC(=O)O1 (stereo partly drawn) [butenyl spinosyn, Butenyl spinosyn α1, reference compound]",–,–,–,–,–,–,–,–,–,–,–,–,–,–,–,–,73%,53%,42%,18%,"solubility kinetic at 24 h ([4]; K.S. 5.4 buffer, read-out: Kinetic Solubility pH = 5.4): 183.17 µM; solubility kinetic at 24 h ([4]; K.S. 7.4 buffer, read-out: Kinetic Solubility pH = 7.4): 3.52 µM; toxicity to honey bees compared to corresponding derivatives (in words) ([2]; acute oral toxicity test): higher toxicity to honey bees"
